The values below come from paper PMC7838080, “Structural and Biochemical Insights Into Two BAHD Acyltransferases (AtSHT and AtSDT) Involved in Phenolamide Biosynthesis” (Frontiers in Plant Science, 2021).

Test [1] concerns the target T1, AtSDT (Arabidopsis thaliana, UniProt O80467).
T1 construct: gene SDT; wild type in pET28a (NdeI/XhoI), E. coli BL21(DE3), Ni-NTA and gel filtration
T1 sequence (O80467 1-451): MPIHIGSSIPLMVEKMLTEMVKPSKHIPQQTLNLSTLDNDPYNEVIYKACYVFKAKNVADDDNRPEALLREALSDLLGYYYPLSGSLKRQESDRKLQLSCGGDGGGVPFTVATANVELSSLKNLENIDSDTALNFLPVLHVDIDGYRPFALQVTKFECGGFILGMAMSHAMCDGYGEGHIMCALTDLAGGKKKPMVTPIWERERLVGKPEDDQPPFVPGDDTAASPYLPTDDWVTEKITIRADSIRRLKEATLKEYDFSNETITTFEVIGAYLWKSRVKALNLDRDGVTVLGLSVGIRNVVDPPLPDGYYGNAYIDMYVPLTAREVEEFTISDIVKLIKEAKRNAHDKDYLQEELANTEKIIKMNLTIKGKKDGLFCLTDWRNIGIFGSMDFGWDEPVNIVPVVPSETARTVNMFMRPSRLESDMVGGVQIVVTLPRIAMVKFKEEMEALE
The test can be described thus: LC-MS product assay. Conditions: 60 µM acyl donor, 200 µM spermidine, pH 7.5, 30 °C, 30 min. The class given is biochemical.

Test [2] has as its target T2, AtSHT (Arabidopsis thaliana, UniProt O64470).
T2 construct: gene SHT; wild type in pET28a (NdeI/XhoI), E. coli BL21(DE3), Ni-NTA and gel filtration; model residues 1-451
T2 sequence (O64470 1-451): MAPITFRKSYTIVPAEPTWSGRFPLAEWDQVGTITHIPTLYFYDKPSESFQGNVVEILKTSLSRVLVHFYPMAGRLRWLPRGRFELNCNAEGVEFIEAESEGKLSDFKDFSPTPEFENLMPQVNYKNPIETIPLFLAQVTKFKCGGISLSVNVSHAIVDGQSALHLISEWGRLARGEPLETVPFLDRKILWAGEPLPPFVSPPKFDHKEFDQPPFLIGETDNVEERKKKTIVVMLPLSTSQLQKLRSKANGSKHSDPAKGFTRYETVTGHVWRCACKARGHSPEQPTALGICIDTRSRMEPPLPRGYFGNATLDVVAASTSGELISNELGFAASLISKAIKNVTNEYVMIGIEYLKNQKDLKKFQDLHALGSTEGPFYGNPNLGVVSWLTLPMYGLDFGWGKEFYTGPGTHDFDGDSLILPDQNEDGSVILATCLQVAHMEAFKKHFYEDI
Put plainly: LC-MS product assay. The settings on record: 60 µM acyl donor, 200 µM spermidine, pH 7.5, 30 °C, 30 min. Format: biochemical.

Test [3] addresses T1, AtSDT. The test can be described thus: LC-MS product assay; X-ray crystal structure. The class given is biochemical. Conditions: 200 µM spermidine, 60 µM sinapoyl-CoA, pH 7.5, 30 °C, 30 min; ligand in crystal only possible electron density, pose docked.
In test [4] the target is T2, AtSHT. Put plainly: LC-MS product assay; X-ray crystal structure. The class given is biochemical. Conditions: 200 µM spermidine, 60 µM feruloyl-CoA, pH 7.5, 30 °C, 30 min; ligand in crystal only possible electron density, pose docked.
Another test concerns the target T3, NP_190301.2 (Arabidopsis thaliana, UniProt F4JAD2).
T3 construct: gene At3g47170; wild type in pET28a (NdeI/XhoI), E. coli BL21(DE3), Ni-NTA and gel filtration
T3 sequence (F4JAD2 1-468): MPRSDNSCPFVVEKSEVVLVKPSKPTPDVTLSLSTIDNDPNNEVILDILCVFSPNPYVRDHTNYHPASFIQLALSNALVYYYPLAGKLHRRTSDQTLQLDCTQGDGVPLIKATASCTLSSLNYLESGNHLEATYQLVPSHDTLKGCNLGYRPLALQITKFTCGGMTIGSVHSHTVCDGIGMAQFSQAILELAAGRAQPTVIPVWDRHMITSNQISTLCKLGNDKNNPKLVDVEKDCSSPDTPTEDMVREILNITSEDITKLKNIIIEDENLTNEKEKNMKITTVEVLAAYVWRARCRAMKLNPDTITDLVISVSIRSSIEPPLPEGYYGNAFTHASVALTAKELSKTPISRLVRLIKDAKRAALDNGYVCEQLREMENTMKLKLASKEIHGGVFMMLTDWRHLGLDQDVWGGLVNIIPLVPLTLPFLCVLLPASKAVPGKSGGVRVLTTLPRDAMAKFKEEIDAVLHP
The test can be described thus: HPLC-MS product assay. Format: biochemical. Conditions: 200 µM putrescine, pH 7.5, 30 °C, 30 min.

The next test addresses T4, OAO95042.1 (Arabidopsis thaliana, UniProt F4K5C5).
T4 construct: gene At5g07080; wild type in pET28a (NdeI/XhoI), E. coli BL21(DE3), Ni-NTA and gel filtration
T4 sequence (F4K5C5 1-450): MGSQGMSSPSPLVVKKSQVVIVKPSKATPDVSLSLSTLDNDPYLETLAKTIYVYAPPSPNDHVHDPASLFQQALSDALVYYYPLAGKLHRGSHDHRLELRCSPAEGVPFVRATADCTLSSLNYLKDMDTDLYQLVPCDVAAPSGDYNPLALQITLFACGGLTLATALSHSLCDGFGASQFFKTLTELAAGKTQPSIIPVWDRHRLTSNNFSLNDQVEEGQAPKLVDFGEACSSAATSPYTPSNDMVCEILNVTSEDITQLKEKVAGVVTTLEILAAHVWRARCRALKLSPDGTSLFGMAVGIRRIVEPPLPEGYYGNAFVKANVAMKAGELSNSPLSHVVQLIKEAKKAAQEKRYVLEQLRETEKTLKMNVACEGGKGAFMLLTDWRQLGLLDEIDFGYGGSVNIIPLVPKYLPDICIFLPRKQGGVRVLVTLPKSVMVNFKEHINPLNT
The test can be described thus: HPLC-MS product assay. The class given is biochemical. The settings on record: 200 µM putrescine, 60 µM caffeoyl-CoA, pH 7.5, 30 °C, 30 min.

Test [5] concerns the target T2, AtSHT. Put plainly: X-ray crystal structure. The class given is binding. Conditions: co-crystallised with spermidine and CoA; 2.3 Å; active site near His155.

Turning to `COc1cc(/C=C/C(=O)SCCNC(=O)CCNC(=O)[C@H](O)C(C)(C)COP(=O)(O)OP(=O)(O)OC[C@H]2O[C@@H](n3cnc4c(N)ncnc43)[C@H](O)[C@@H]2OP(=O)(O)O)cc(OC)c1O` [sinapoyl-CoA], the LC-MS product assay result on AtSDT [1] was “wild-type AtSDT can efficiently couple spermidine with sinapoyl CoA to yield monosinapoyl”.

Turning to `COc1cc(/C=C/C(=O)SCCNC(=O)CCNC(=O)[C@H](O)C(C)(C)COP(=O)(O)OP(=O)(O)OC[C@H]2O[C@@H](n3cnc4c(N)ncnc43)[C@H](O)[C@@H]2OP(=O)(O)O)ccc1O` [feruloyl-CoA], at AtSHT [2], the LC-MS product assay result is “wild-type AtSHT can efficiently convert spermidine and feruloyl-CoA to monoferuloyl spermidine”.

As for `NCCCCNCCCN` [spermidine], the “LC-MS product assay; X-ray crystal structure” value on AtSDT [3] is “wild-type AtSDT can efficiently couple spermidine with sinapoyl CoA to yield monosinapoyl”; at AtSHT [4], “wild-type AtSHT can efficiently convert spermidine and feruloyl-CoA to monoferuloyl spermidine”.

As to `CC(C)(COP(=O)(O)OP(=O)(O)OC[C@H]1O[C@@H](n2cnc3c(N)ncnc32)[C@H](O)[C@@H]1OP(=O)(O)O)[C@@H](O)C(=O)NCCC(=O)NCCSC(=O)/C=C/c1ccc(O)c(O)c1` [caffeoyl-CoA], the HPLC-MS product assay result at NP_190301.2 (60 µM acyl donor) was “encoded enzymes that could efficiently convert putrescine and caffeoyl-CoA to di-caffeoyl putrescine”.

Consider `NCCCCN` [putrescine], for which the HPLC-MS product assay result on NP_190301.2 (60 µM caffeoyl-CoA) is “encoded enzymes that could efficiently convert putrescine and caffeoyl-CoA to di-caffeoyl putrescine”; on OAO95042.1, “encoded enzymes that could efficiently convert putrescine and caffeoyl-CoA to di-caffeoyl putrescine”.

As to `CC(C)(COP(=O)(O)OP(=O)(O)OC[C@H]1O[C@@H](n2cnc3c(N)ncnc32)[C@H](O)[C@@H]1OP(=O)(O)O)[C@@H](O)C(=O)NCCC(=O)NCCS` [CoA-HS], at AtSHT [5], the X-ray crystal structure result was “The extra density near His155 was determined as CoA-HS”.
